Data: the supplement of paper PMC5412046
Where a name gives a salt, the structure may show the parent alone.

test system: SB.msgc-1; test: AC50 for growth inhibition (viability) (log10 M); higher = less potent; settings: SB.msgc-1 (sporadic gastric cancer)
Outline: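 Compound dissolved in DMSO was transferred by pintool, 23 nL per 1536 well, onto 500 hereditary or sporadic patient-derived gastric cancer cells in 5 μL medium. The series spanned 11 threefold dilutions, the highest at a final 46 μM. At 48 h, a 30 min room-temperature incubation with CellTiter-Glo preceded luminescence measurement on a ViewLux. The log half-maximal activity concentration was fitted by a four-parameter model to DMSO-normalised viability, with only high-quality curve classes accepted.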

COc1ccc(OC)c(-c2nnc3ccc(-c4ccc(OC)c(O[C@@H]5CCOC5)c4)nn23)c1 and COc1ccc(C(=O)c2c(C)n(CCN3CCOCC3)c3cc(I)ccc23)cc1 [AM-630] are within 0.2 log units of each other in “AC50 for growth inhibition (log10 M)” value: -4.68 for the first, -4.63 for the second.

O=C1NC(=O)/C(=C/c2ccc3c(c2)OC(F)(F)O3)S1 and CN1CCCN(C(=O)c2cccc(-c3ccc(/C=C4/C(=O)Nc5ccc(Cl)cc54)o3)c2)CC1 [CX-6258] are within 0.2 log units of each other in “AC50 for growth inhibition (log10 M)” value: -4.83 for the first, -4.73 for the second.

Nc1cccc([S+](=O)([O-])N2CCCN([S+](=O)([O-])c3ccc4c(c3)OCCO4)CC2)c1 and O=C(Nc1cccc(Br)c1)c1cccc([S+](=O)([O-])N2CCCCCC2)c1 [Ak-7] are within 0.2 log units of each other in “AC50 for growth inhibition (log10 M)” value: -4.88 for the first, -4.73 for the second.

Compared with O=C(NOC[C@H](O)CO)c1ccc(F)c(F)c1Nc1ccc(I)cc1F, Cn1cnc2c(F)c(Nc3ccc(Br)cc3F)c(C(=O)NOCCO)cc21 [ARRY-162] is lower in “AC50 for growth inhibition (log10 M)” value: -6.33 for the first, -6.63 for the second.

COc1cc2c(cc1O)CCC1C2CC[C@@]2(C)C1CC[C@@H]2O (stereo partly drawn) [2-Methoxyestradiol] and C[C@]\12CC[C@H](O)CC1=C/C[C@@H]3[C@@H]2CC[C@@]\4(C)[C@H]3C\C=C4C5=CN=CC=C5 [Abiraterone] are within 0.2 log units of each other in “AC50 for growth inhibition (log10 M)” value: -5.33 for the first, -5.19 for the second.

Cn1cnc(N)c2ncnc1-2 [3-Methyladenine] and Cn1cnc([N+](=O)[O-])c1Sc1ncnc2nc[nH]c12 [Azathioprine] are within 0.2 log units of each other in “AC50 for growth inhibition (log10 M)” value: -5.28 for the first, -5.43 for the second.

First: N[C@@H](Cc1c[nH]c2ccc(O)cc12)C(=O)O [5-Hydroxytryptophan]
Second: O=C(O)/C=C/c1ccc(O)c(O)c1 [Caffeic acid]
The “AC50 for growth inhibition (log10 M)” value of the first is higher: -4.68 for the first, -4.88 for the second.

Going from S=C1N\C=N/C2=C1[NH]C=N2 [6-mercaptopurine] to Nc1nc(N)c2nc(CNc3ccc(C(=O)NC(CCC(=O)O)C(=O)O)cc3)cnc2n1 (stereo not drawn) [Aminopterin], the “AC50 for growth inhibition (log10 M)” value falls from -5.63 to -7.63.

Cc1cc2c(C(C)C)c(O)c(O)c(C=O)c2c(O)c1-c1c(C)cc2c(C(C)C)c(O)c(O)c(C=O)c2c1O [(-)-Gossypol] and COc1cc(C)c(/C=C/C(C)=C/C=C/C(C)=C/C(=O)O)c(C)c1C [Acitretin] are within 0.2 log units of each other in “AC50 for growth inhibition (log10 M)” value: -4.83 for the first, -4.73 for the second.

Compared with CC(C)[C@H]1C(=O)N[C@H](CO)Cc2c[nH]c3cccc(c23)N1C [(-)-Indolactam V], O=C1CCc2ccc(OCCCCN3CCN(c4cccc(Cl)c4Cl)CC3)cc2N1 [Aripiprazole] is higher in “AC50 for growth inhibition (log10 M)” value: -6.43 for the first, -4.73 for the second.

Cc1cccc(-c2nn(C(=S)Nc3ccccc3)cc2-c2ccnc3ccccc23)n1 [A 83-01] and Cc1csc(-c2nnc(Nc3ccc(Oc4ncccc4-c4ccnc(N)n4)cc3)c3ccccc23)c1 [AMG-900] are within 0.2 log units of each other in “AC50 for growth inhibition (log10 M)” value: -4.73 for the first, -4.68 for the second.

CC(=O)NC(C)c1ccc(Oc2ccc(OC(C)C)cc2)cc1 (stereo not drawn) [ACC1 BMS] and N#Cc1ccc(Oc2ccc3c(c2)COB3O)cc1 [AN2728] are the same in “AC50 for growth inhibition (log10 M)” value: -4.73 for the first, -4.73 for the second.

O=C(Nc1cccc(C(F)(F)F)c1)Nc1cc([S+](=O)([O-])NC2CC2)ccc1-c1ccsc1 [AGI-6780] and Cc1ccc(-c2cc(C(F)(F)F)nn2-c2ccc([S+](N)(=O)[O-])cc2)cc1 [Celecoxib] are within 0.2 log units of each other in “AC50 for growth inhibition (log10 M)” value: -4.73 for the first, -4.78 for the second.

O=c1[nH]c2ccccc2n1C1CCN(Cc2ccc(-c3nc4cc5nc[nH]c5cc4nc3-c3ccccc3)cc2)CC1 [AKT inhibitor VIII] and CC(C)c1c(C(=O)Nc2ccccc2)c(-c2ccccc2)c(-c2ccc(F)cc2)n1CC[C@@H](O)C[C@@H](O)CC(=O)[O-] [Atorvastatin calcium] are within 0.2 log units of each other in “AC50 for growth inhibition (log10 M)” value: -4.83 for the first, -4.68 for the second.

First: COCC1(CO)C(=O)C2CCN1CC2 (stereo not drawn) [APR-246]
Second: COC(=O)\C1=C\CCN(C)C1 [Arecoline]
The “AC50 for growth inhibition (log10 M)” value of the first is lower: -4.88 for the first, -4.68 for the second.

Going from CC(C)[C@H](C(=O)Nc1ccc(C(=O)NO)cc1)c1ccccc1 [AR-42] to C/C(=C\C(=O)Nc1ccccc1C(=O)O)c1ccc2ccccc2c1 [BIBR 1532], the “AC50 for growth inhibition (log10 M)” value rises from -6.18 to -4.78.

Going from COc1cc(N2CCC(N3CCN(C)CC3)CC2)ccc1Nc1ncnc(Nc2ccccc2[S+](=O)([O-])C(C)C)n1 [ASP-3026] to CC[C@@H]1C(=O)N(C)c2cnc(Nc3ccc(C(=O)NC4CCN(C)CC4)cc3OC)nc2N1C1CCCC1 [BI-2536], the “AC50 for growth inhibition (log10 M)” value falls from -4.88 to -7.28.

Compared with CN1\C=N/C2=CC=C(NC3=CC(=CC=C3C)NC(=O)C4=CC(=CC=C4)C(C)(C)C#N)C=C2C1=O [AZ-628], Cc1nc2cnc3ccc(C#Cc4cccnc4)cc3c2n1-c1ccc(C(C)(C)C#N)cc1 [BAG-956] is lower in “AC50 for growth inhibition (log10 M)” value: -5.23 for the first, -5.93 for the second.

First: COc1cc(OC2CCN(C)CC2)ccc1Nc1ncc2c(n1)n(C1CCCC1)c(=O)n2C [AZ-3146]
Second: COc1cc(Nc2c(C#N)cnc3cc(OCCCN4CCN(C)CC4)c(OC)cc23)c(Cl)cc1Cl [Bosutinib]
The “AC50 for growth inhibition (log10 M)” value of the first is higher: -4.78 for the first, -5.58 for the second.

First: Cc1ncc(-c2ccnc(Nc3ccc([S+](C)(=O)[O-])cc3)n2)n1C(C)C [AZD-5438]
Second: Cc1nc(N)sc1-c1ccnc(Nc2ccc(N3CCOCC3)cc2)n1 [CYC-116]
The “AC50 for growth inhibition (log10 M)” value of the first is lower: -5.78 for the first, -4.63 for the second.

Compared with NC(=O)Nc1cc(-c2cccc(F)c2)sc1C(=O)N[C@H]1CCCNC1 [AZD-7762], Cc1nc(NC(=O)N2CCC[C@H]2C(N)=O)sc1-c1ccnc(C(C)(C)C(F)(F)F)c1 [BYL-719] is higher in “AC50 for growth inhibition (log10 M)” value: -6.73 for the first, -4.88 for the second.

Compared with CCC[S+]([O-])c1ccc2[nH]c(NC(=O)OC)nc2c1 (stereo not drawn) [Albendazole Oxide], NC(=O)c1nnn(Cc2cc(Cl)c(C(=O)c3ccc(Cl)cc3)c(Cl)c2)c1N [Carboxyamidotriazole] is lower in “AC50 for growth inhibition (log10 M)” value: -4.68 for the first, -5.03 for the second.

First: NC12CC3CC(CC(C3)C1)C2 [Amantadine hydrochloride]
Second: C[C@@H]1CC[C@H]2[C@@H](C)C(=O)O[C@@H]3O[C@@]4(C)CC[C@@H]1[C@]32OO4 [Artemisinin]
The “AC50 for growth inhibition (log10 M)” value of the first is higher: -4.68 for the first, -6.93 for the second.

Going from COc1ccc(C(=O)N2CCCC2=O)cc1 [Aniracetam] to CC(N[C@H]1CCCC[C@@H]1NC(=O)c1ccc(Cl)cc1)c1cccc2ccccc12 (stereo partly drawn) [Calhex 231], the “AC50 for growth inhibition (log10 M)” value falls from -4.68 to -5.93.

Compared with CCOC(=O)c1c(CSc2ccccc2)n(C)c2cc(Br)c(O)c(CN(C)C)c12 [Arbidol], CC(C)(OCc1nn(Cc2ccccc2)c2ccccc12)C(=O)O [Bindarit] is lower in “AC50 for growth inhibition (log10 M)” value: -4.63 for the first, -5.08 for the second.

Going from CO[C@H]1O[C@@H]2O[C@@]3(C)CC[C@H]4[C@H](C)CC[C@@H]([C@H]1C)[C@@]24OO3 [Artemether] to C[C@H]1[C@H](O)O[C@@H]2O[C@@]3(C)CC[C@H]4[C@H](C)CC[C@@H]1[C@@]24OO3 [Artenimol], the “AC50 for growth inhibition (log10 M)” value rises from -5.98 to -5.68.

Compared with CC[P](CC)(CC)=[Au][S][C@@H]1OC(COC(C)=O)[C@@H](OC(C)=O)[C@H](OC(C)=O)C1OC(C)=O (stereo partly drawn) [Auranofin], CCCC1OC2C[C@H]3[C@@H]4CCC5=CC(=O)C=C[C@]5(C)[C@H]4C(O)C[C@]3(C)[C@]2(C(=O)CO)O1 (stereo partly drawn) [Budesonide] is higher in “AC50 for growth inhibition (log10 M)” value: -5.53 for the first, -4.68 for the second.

NC(=O)[C@@H](CCC(F)(F)F)N(Cc1ccc(-c2ncon2)cc1F)[S+](=O)([O-])c1ccc(Cl)cc1 [Avagacestat] and Clc1ccc(-c2nc3sccn3c2/C=N/OCc2ccc(Cl)c(Cl)c2)cc1 [CITCO] are within 0.2 log units of each other in “AC50 for growth inhibition (log10 M)” value: -4.83 for the first, -4.73 for the second.

CC(C)c1cc(C(C)C)c(CC(=O)N[S+](=O)([O-])Oc2c(C(C)C)cccc2C(C)C)c(C(C)C)c1 [Avasimibe] and Cc1ccc(Nc2cc(-c3cccc(N4C(=O)c5ccccc5C4=O)c3)ncn2)cc1N[S+](C)(=O)[O-] [CDK9 inhibitor] are within 0.2 log units of each other in “AC50 for growth inhibition (log10 M)” value: -4.78 for the first, -4.63 for the second.

First: CNC(=O)c1ccccc1Sc1ccc2c(/C=C/c3ccccn3)n[nH]c2c1 [Axitinib]
Second: Cn1c(Nc2ccc(C(F)(F)F)cc2)nc2cc(Oc3ccnc(-c4nc(C(F)(F)F)c[nH]4)c3)ccc21 [CHIR-265]
The “AC50 for growth inhibition (log10 M)” value of the first is higher: -4.68 for the first, -6.68 for the second.

CCc1cc(/C(C)=N/OCc2ccc(C3CCCCC3)c(C(F)(F)F)c2)ccc1CN1CC(C(=O)O)C1 [BAF-312] and CCCn1c(=O)c2[nH]c(-c3cnn(Cc4cccc(C(F)(F)F)c4)c3)nc2n(CC)c1=O [CVT-6883] are within 0.2 log units of each other in “AC50 for growth inhibition (log10 M)” value: -4.73 for the first, -4.68 for the second.

C[C@H]1CC2C3CCC/4=C/C(=O)/C=C\[C@]4(C)[C@@]3(F)[C@@H](O)C[C@]2(C)[C@@]1(O)C(=O)CO (stereo partly drawn) [Betamethasone] and C=C(C)[C@@H]1CC[C@]2(C(=O)O)CC[C@]3(C)[C@H](CC[C@@H]4[C@@]5(C)CC[C@H](O)C(C)(C)[C@@H]5CC[C@]43C)[C@@H]12 [Betulinic acid] are within 0.2 log units of each other in “AC50 for growth inhibition (log10 M)” value: -4.88 for the first, -4.83 for the second.

Going from CC(C)(C)[C@]1(O)C[C@@H]2OC(=O)C[C@@]23C(=O)O[C@@H]2OC(=O)[C@H](O)C213 (stereo partly drawn) [Bilobalide] to C=C1C(=O)OC(CCCCCCCC)C1C(=O)O (stereo not drawn) [C-75], the “AC50 for growth inhibition (log10 M)” value rises from -4.93 to -4.58.

Clc1ccc(CCC(Cn2ccnc2)Sc2c(Cl)cccc2Cl)cc1 (stereo not drawn) [Butoconazole nitrate] and Clc1ccc(C(c2ccc(Cl)cc2)[n+]2ccn(CC(OCc3ccc(Cl)cc3Cl)c3ccc(Cl)cc3Cl)c2)cc1 (stereo not drawn) [Calmidazolium chloride] are the same in “AC50 for growth inhibition (log10 M)” value: -4.68 for the first, -4.68 for the second.
